Data taken from patent US20250215029A1 (Recludix Pharma, Inc., priority 2022, published 2025).

Target: T1, pY641-STAT6 in PBMC (Homo sapiens, UniProt P42226)
T1 construct: Cryopreserved Peripheral Blood Mononuclear Cells (PBMC) are from AllCells; host or cells: cryopreserved PBMC
T1 sequence (P42226 1-847): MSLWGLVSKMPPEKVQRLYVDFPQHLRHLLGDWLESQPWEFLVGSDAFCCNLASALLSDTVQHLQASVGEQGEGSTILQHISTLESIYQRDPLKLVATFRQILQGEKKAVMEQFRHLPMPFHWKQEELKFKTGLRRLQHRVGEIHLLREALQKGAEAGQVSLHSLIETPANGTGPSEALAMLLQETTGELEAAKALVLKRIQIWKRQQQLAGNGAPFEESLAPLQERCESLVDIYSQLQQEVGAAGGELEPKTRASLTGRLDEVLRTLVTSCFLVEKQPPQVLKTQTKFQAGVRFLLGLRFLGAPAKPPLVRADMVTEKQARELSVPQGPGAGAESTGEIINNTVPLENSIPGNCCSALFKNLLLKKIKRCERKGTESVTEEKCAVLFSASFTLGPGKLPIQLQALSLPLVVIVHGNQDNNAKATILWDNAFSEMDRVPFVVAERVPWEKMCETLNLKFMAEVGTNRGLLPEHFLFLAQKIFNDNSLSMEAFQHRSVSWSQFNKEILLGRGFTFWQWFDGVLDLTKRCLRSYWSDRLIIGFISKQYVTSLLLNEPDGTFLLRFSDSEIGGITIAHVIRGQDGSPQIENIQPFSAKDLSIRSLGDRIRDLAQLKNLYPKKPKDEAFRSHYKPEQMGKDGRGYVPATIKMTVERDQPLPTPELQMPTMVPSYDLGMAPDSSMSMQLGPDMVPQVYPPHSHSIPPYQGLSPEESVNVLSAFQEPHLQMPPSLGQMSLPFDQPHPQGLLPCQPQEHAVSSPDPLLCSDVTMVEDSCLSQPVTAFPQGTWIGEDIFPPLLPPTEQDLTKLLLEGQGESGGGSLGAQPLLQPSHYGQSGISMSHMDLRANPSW
Experiment: MSD-pSTAT-PBMC Assay (pSTAT6, IL-4 stimulated)
Type: cell-based
Details: PBMC, compound 3 hrs, then 1 ng/mL IL-4 for 10 min; Table 115; read-out: STAT6
Summary of the method: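 Inhibition of cytokine-induced STAT phosphorylation was measured in recovered human PBMC after 3 hrs compound exposure and a 10 min IL-4 (1 ng/mL) or IL-6 (10 ng/mL) challenge. MSD detection of pY641-STAT6 or pY705-STAT3 yielded IC50 values.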

Row | SMILES | IC50 [nM]
1 | COCCOCC(=O)SCCOP(=O)(OCCSC(=O)COCCOC)C(F)(F)c1ccc2ccc(C(=O)N[C@H]3CCCC[C@H]4CC[C@@H](C(=O)N5C[C@@H](C#N)[C@H](c6cc[nH]c(=O)c6)C5)N4C3=O)cc2c1 (single isomer, unassigned) [Compound 1013] | 100 to 1000
2 | CCCOC(=O)[C@H](C)NP(=O)(Cc1ccc2sc(C(=O)N[C@H]3CCCC[C@H]4CC[C@@H](C(=O)N5C[C@@H](C#N)[C@H](c6ccccc6)C5)N4C3=O)cc2c1)Oc1ccccc1 (stereo partly shown) [Compound 444] | 100 to 1000
3 | CCCOC(=O)[C@H](C)NP(=O)(Oc1ccccc1)[C@@H](F)c1ccc2sc(C(=O)N[C@H]3CCC[C@H]4CC[C@@H](C(=O)N5C[C@H](c6ccc(C)cc6)[C@@H](C#N)C56CC6)N4C3=O)cc2c1 (stereo partly shown) [Compound 479] | < 100

Same assay, conditions: STAT6, PBMC, compound 3 hrs, then 1 ng/mL IL-4 for 10 min; Table 115

Row | SMILES | IC50 [nM]
4 | CCCOC(=O)[C@H](C)NP(=O)(Oc1ccccc1)[C@H](F)c1ccc2sc(C(=O)N[C@H]3C[C@@H](C)C[C@H]4CC[C@@H](C(=O)N5C[C@H](c6ccccc6)[C@@H](C#N)C56CC6)N4C3=O)cc2c1 (stereo partly drawn) [Compound 349, propyl (((S)-(2-(((3S,6S,8R,9aR)-3-((6S,7R)-7-cyano-6-phenyl-4-azaspiro[2.4]heptane-4-carbonyl)-8-methyl-5-oxooctahydro-1H-pyrrolo[1,2-a]azepin-6-yl)carbamoyl)benzo [b]thiophen-5-yl)fluoromethyl) (phenoxy)phosphoryl)-L-alaninate] | < 100
5 | CCC(CC)COC(=O)[C@H](C)NP(=O)(Oc1ccccc1)[C@@H](F)c1ccc2sc(C(=O)N[C@H]3CCCC[C@H]4CC[C@@H](C(=O)N5C[C@@H](c6cccnc6)CC56CC6)N4C3=O)cc2c1 (stereo partly drawn) [Compound 471, 2-ethylbutyl (((R)-fluoro(2-(((3S,6S,10aS)-5-oxo-3-((R)-6-(pyridin-3-yl)-4-azaspiro[2.4]heptane-4-carbonyl)decahydropyrrolo[1,2-a]azocin-6-yl)carbamoyl)benzo [b]thiophen-5-yl)methyl)(phenoxy)phosphoryl)-L-alaninate] | < 100
6 | CCCOC(=O)[C@H](C)NP(=O)(Oc1ccccc1)C(F)c1ccc2sc(C(=O)N[C@H]3CCCC[C@H]4CC[C@@H](C(=O)N5C(=O)N(c6cc(=O)n(C)cc6F)C(=O)C56CC6)N4C3=O)cc2c1 (stereo partly drawn) [Compound 976, propyl ((fluoro(2-(((3S,6S,10aS)-3-(6-(5-fluoro-1-methyl-2-oxo-1,2-dihydropyridin-4-yl)-5,7-dioxo-4,6-diazaspiro [2.4]heptane-4-carbonyl)-5-oxodecahydropyrrolo [1,2-a]azocin-6-yl)carbamoyl)benzo [b]thiophen-5-yl)methyl)(phenoxy)phosphoryl)-L-alaninate] | > 3000
7 | CCCOC(=O)[C@H](C)NP(=O)(Oc1ccccc1)C(F)c1ccc2sc(C(=O)N[C@H]3CCCC[C@H]4CC[C@@H](C(=O)N5C[C@@H](C#N)[C@H](c6ccn(C)c(=O)c6)C5)N4C3=O)cc2c1 (single isomer, unassigned) [Compound 318] | > 3000
8 | CC(C)OC(=O)[C@H](C)NP(=O)(Cc1ccc2sc(C(=O)N[C@H]3CCCC[C@H]4CC[C@@H](C(=O)N5C[C@@H](c6cccnc6)CC56CC6)N4C3=O)cc2c1)Oc1ccccc1 (stereo partly drawn) [Compound 475, isopropyl (((2-(((3S,6S,10aS)-5-oxo-3-((R)-6-(pyridin-3-yl)-4-azaspiro[2.4]heptane-4-carbonyl)decahydropyrrolo[1,2-a]azocin-6-yl)carbamoyl)benzo [b]thiophen-5-yl)methyl)(phenoxy)phosphoryl)-L-alaninate] | 100 to 1000
9 | CCCOC(=O)[C@H](C)NP(=O)(Oc1ccccc1)[C@H](F)c1ccc2sc(C(=O)N[C@H]3CCC[C@H]4CC[C@@H](C(=O)N5C[C@@H](c6cccnc6)[C@H](C#N)C56CC6)N4C3=O)cc2c1 (single isomer, unassigned) [Compound 355] | < 100
10 | CCCOC(=O)[C@H](C)NP(=O)(Oc1ccccc1)C(F)c1ccc2ccc(C(=O)N[C@H]3CCCC[C@H]4CC[C@@H](C(=O)N5C[C@H](c6ccccc6)[C@@H](C#N)C56CC6)N4C3=O)cc2c1 (stereo partly drawn) [Compound 442, propyl (((7-(((3S,6S,10aS)-3-((6S,7R)-7-cyano-6-phenyl-4-azaspiro[2.4]heptane-4-carbonyl)-5-oxodecahydropyrrolo [1,2-a]azocin-6-yl)carbamoyl)naphthalen-2-yl)fluoromethyl) (phenoxy)phosphoryl)-L-alaninate] | < 100
11 | CCCOC(=O)[C@H](C)NP(=O)(Oc1ccccc1)[C@@H](F)c1ccc2sc(C(=O)N[C@H]3CC[C@H](N4CCC4)C[C@H]4CC[C@@H](C(=O)N5C[C@@H](c6ccccc6)[C@H](C#N)C56CC6)N4C3=O)cc2c1 (stereo partly drawn) [Compound 489, propyl (((R)-(2-(((3S,6S,9S,10aR)-9-(azetidin-1-yl)-3-((6R,7S)-7-cyano-6-phenyl-4-azaspiro[2.4]heptane-4-carbonyl)-5-oxodecahydropyrrolo [1,2-a]azocin-6-yl)carbamoyl)benzo [b]thiophen-5-yl)fluoromethyl) (phenoxy)phosphoryl)-L-alaninate] | 100 to 1000
12 | CCCOC(=O)[C@H](C)NP(=O)(Oc1ccccc1)[C@@H](F)c1ccc2sc(C(=O)N[C@H]3CCC[C@H]4CC[C@@H](C(=O)N5C[C@H](c6cccnc6)[C@@H](C#N)C56CC6)N4C3=O)cc2c1 (single isomer, unassigned) [Compound 362] | < 100
13 | COCCOC(=O)[C@H](C)NP(=O)(Oc1ccccc1)[C@@H](F)c1ccc2sc(C(=O)N[C@H]3CCCC[C@H]4CC[C@@H](C(=O)N5C[C@H](c6ccccc6)[C@@H](C#N)C56CC6)N4C3=O)cc2c1 (stereo partly drawn) [Compound 375, 2-methoxyethyl (((R)-(2-(((3S,6S,10aS)-3-((6S,7R)-7-cyano-6-phenyl-4-azaspiro[2.4]heptane-4-carbonyl)-5-oxodecahydropyrrolo [1,2-a]azocin-6-yl)carbamoyl)benzo [b]thiophen-5-yl)fluoromethyl) (phenoxy)phosphoryl)-L-alaninate] | < 100
14 | CCCCOC(=O)[C@H](C)NP(=O)(Cc1ccc2ccc(C(=O)N[C@H]3CCCC[C@H]4CC[C@@H](C(=O)N5CC(c6ccccc6)CC56CC6)N4C3=O)cc2c1)Oc1cccc2ccccc12 (stereo partly drawn) [Compound 416, butyl ((naphthalen-1-yloxy)((7-(((3S,6S,10aS)-5-oxo-3-(6-phenyl-4-azaspiro[2.4]heptane-4-carbonyl)decahydropyrrolo[1,2-a]azocin-6-yl)carbamoyl)naphthalen-2-yl)methyl)phosphoryl)-L-alaninate] | > 3000
15 | CCCOC(=O)[C@H](C)NP(=O)(Oc1ccccc1)[C@H](F)c1ccc2sc(C(=O)N[C@H]3CCCC[C@H]4CC[C@@H](C(=O)N5C[C@@H](C#N)[C@H](c6ccccc6)C5)N4C3=O)cc2c1 (single isomer, unassigned) [Compound 321] | < 100
16 | CCCOC(=O)[C@H](C)NP(=O)(Oc1ccccc1)[C@@H](F)c1ccc2sc(C(=O)N[C@H]3CCC[C@H]4CC[C@@H](C(=O)N5C[C@H](c6cncc(Cl)c6)[C@@H](C#N)C56CC6)N4C3=O)cc2c1 (single isomer, unassigned) [Compound 367] | 100 to 1000
17 | C[C@H](NP(=O)(Oc1ccccc1)[C@@H](F)c1ccc2sc(C(=O)N[C@H]3CCCC[C@H]4CC[C@@H](C(=O)N5C[C@@H](c6cccnc6)CC56CC6)N4C3=O)cc2c1)C(=O)OCC1COC1 (stereo partly drawn) [Compound 374, oxetan-3-ylmethyl (((R)-fluoro(2-(((3S,6S,10aS)-5-oxo-3-((R)-6-(pyridin-3-yl)-4-azaspiro[2.4]heptane-4-carbonyl)decahydropyrrolo[1,2-a]azocin-6-yl)carbamoyl)benzo [b]thiophen-5-yl)methyl)(phenoxy)phosphoryl)-L-alaninate] | < 100

Same assay, conditions: read-out: STAT6; PBMC, compound 3 hrs, then 1 ng/mL IL-4 for 10 min; Table 115

Row | SMILES | IC50 [nM]
18 | CCCOC(=O)[C@H](C)NP(=O)(Oc1ccccc1)[C@@H](F)c1ccc2sc(C(=O)N[C@H]3CCCC[C@H]4CC[C@@H](C(=O)N5C[C@H](c6cccc(OC)c6)[C@@H](C#N)C56CC6)N4C3=O)cc2c1 (single isomer, unassigned) [Compound 336] | < 100
19 | CCCOC(=O)[C@H](C)NP(=O)(Oc1ccccc1)C(F)c1ccc2sc(C(=O)N[C@H]3CCCC[C@H]4CC[C@@H](C(=O)N5C[C@@H](C#N)[C@H](c6ccccc6)C5)N4C3=O)cc2c1 (single isomer, unassigned) [Compound 317] | < 100
